Source: patent US11938136B2, “Compositions for treating spinal muscular atrophy” (Hoffmann-La Roche Inc., priority 2015, dated 2024)

Columns and labels:
[1] = tested on: SMNΔ7 mice; assay: Neuromuscular connectivity and muscle atrophy in SMNΔ7 mice (immunohistochemistry); assay type: in vivo, mouse; conditions: 0.1, 0.3, 1 mg/kg IP once per day, P3 to P14
Protocol: SMNΔ7 mice were treated with the compound of Example 20 from P3 to P14, and neuromuscular connectivity and muscle atrophy were assessed by immunohistochemistry. (A) vGlut1-positive proprioceptive inputs in L3-5 spinal cord. (B) Ventral motor axons in L3-5 spinal cord. (C) NMJ innervation onto longissimus muscle. (D) EDL muscle cross-sectional area. Data represent means SEM of 4-5 mice per group. *=p<0.05; **=p<0.01; ***=p<0.001 vs. vehicle-treated SMNΔ7 mice.
Lastly, the compound of Example 20 improves neuromuscular connectivity in a severe SMA mouse model in vivo. SMNΔ7 mice were treated from P3 to P14 by IP application of vehicle or 0.1, 0.3, 1 mg/kg Example 20 once per day. At P14, 1 hour after the last dose spinal cord and muscle tissues were processed for histological assessment.

[2] = tested on: full length SMN2 minigene mRNA; assay: SMN2 minigene mRNA splicing RT-qPCR assay in cultured cells; assay type: cell-based, human
Text: The term “EC1.5x concentration for production of full length SMN2 minigene mRNA” (or “EC1.5x minigene”) is defined as that concentration of test compound that is effective in increasing the amount of full length SMN2 minigene mRNA to a level 1.5-fold greater relative to that in vehicle-treated cells.
The reverse transcription-quantitative PCR-based (RT-qPCR) assay is used to quantify the level of the full length SMN2 minigene (referred to herein by the term “FL SMN2mini”) mRNA containing SMN2 exon 7 in a HEK293H cell line stably transfected with said minigene and treated with a test compound. Materials used and respective sources are listed below in Table 1.
The SMN2-A minigene construct was prepared as described in International Patent Application WO2009/151546A1 page 145 paragraph [00400] to page 147 paragraph [00412](incl. FIG. 1 and FIG. 3 therein).
HEK293H cells stably transfected with the SMN2-A minigene construct (10,000 cells/well) are seeded in 200 μL of cell culture medium (DMEM plus 10% FBS, with 200 μg/mL hygromycin) in 96-well flat-bottom plates and the plate is immediately swirled to ensure proper dispersal of cells and the formation of an even monolayer of cells. Cells are allowed to attach for 6 hours. Test compounds are serially diluted 3.16-fold in 100% DMSO to generate a 7-point concentration curve. A solution of test compound (1 μL, 200× in DMSO) is added to each cell-containing well and the plate is incubated for 24 hours in a cell culture incubator (37° C., 5% CO2, 100% relative humidity). 2 replicates are prepared for each test compound concentration. The cells are then lysed in the Cells-To-Ct lysis buffer and the lysate is stored at −80° C.
Full length SMN2-A minigene and GAPDH mRNA are quantified using the primers and probes referenced in WO2014/209841A2 on page 80 in Table 1. Primer SMN Forward A (SEQ ID NO.1) hybridizes to a nucleotide sequence in exon 7 (nucleotide 22 to nucleotide 40), primer SMN Reverse A (SEQ ID NO.2) hybridizes to a nucleotide sequence in the coding sequence of Firefly luciferase, SMN Probe A (SEQ ID NO.3) hybridizes to a nucleotide sequence in exon 7 (nucleotide 50 to nucleotide 54) and exon 8 (nucleotide 1 to nucleotide 21). The combination of these three oligonucleotides detects only SMN1 or SMN2 minigenes (RT-qPCR) and will not detect endogenous SMN1 or SMN2 genes.
The SMN forward and reverse primers are used at final concentrations of 0.4 μM. The SMN probe is used at a final concentration of 0.15 μM. The GAPDH primers are used at final concentrations of 0.2 μM and the probe at 0.15 μM.
The SMN2-minigene GAPDH mix (15 μL total volume) is prepared by combining 7.5 μL of 2×RT-PCR buffer, 0.4 μL of 25×RT-PCR enzyme mix, 0.75 μL of 20×GAPDH primer-probe mix, 4.0075 μL of water, 2 μL of 10-fold diluted cell lysate, 0.06 μL of 100 μM SMN forward primer, 0.06 μL of 100 μM SMN reverse primer, and 0.225 μL of 100 μM SMN probe.
PCR is carried out at the following temperatures for the indicated time: Step 1: 48° C. (15 min); Step 2: 95° C. (10 min); Step 3: 95° C. (15 sec); Step 4: 60° C. (1 min); then repeat Steps 3 and 4 for a total of 40 cycles.
Each reaction mixture contains both SMN2-A minigene and GAPDH primers/probe sets (multiplex design), allowing simultaneous measurement of the levels of two transcripts.
The increase in the abundance of the FL SMN2mini mRNA relative to that in cells treated with vehicle control is determined from real-time PCR data using a modified ΔΔCt method (as described in Livak and Schmittgen, Methods, 2001, 25:402-8). The amplification efficiency E is calculated from the slope of the amplification curve for FL SMN2mini and GAPDH individually. The abundance of FL SMN2mini and GAPDH mRNA are then calculated as (1+E)^−Ct, where Ct is the threshold value for each amplicon. The abundance of FL SMN2mini mRNA is normalized to GAPDH mRNA abundance. […]

[3] = tested on: SMN2 splicing; assay: Ex vivo whole blood assay, SMN2 splicing; assay type: cell-based, human; conditions: whole blood cells from healthy volunteers, 4 hours
Protocol: (A) SMN2 splicing in SMA Type 1 fibroblasts. (B) SMN protein in SMA Type 1 fibroblasts. (C) SMN protein in SMA Type 1 motor neurons. (D) SMN1 and SMN2 splicing in whole blood derived from HV. Fibroblasts from SMA Type 1 patients were cultured for 24 hours (A) or 48 hours (B); motor neurons from SMA Type 1 patient iPSCs (induced Pluripotent Stem Cells) were cultured for 72 hours (C) and whole blood cells from healthy volunteers (HV) for 4 hours (D) in the presence of the compound of Example 20. SMN splicing was assessed by RT-PCR, and SMN protein levels were assessed by homogenous time-resolved fluorescence (HTRF) in fibroblast lysates, and by immunostaining for SMN in motor neurons. Data represent means standard error (SEM) of 3 evaluations per data point and are expressed as fold change vs. untreated controls. To further assess SMN2 splicing as a potential blood biomarker, an ex vivo assay was developed using whole blood cells from healthy volunteers in which SMN1 and SMN2 splicing was assessed after 4 hours treatment with the compound of Example 20 (at this time point, maximal splicing changes were achieved).

## Cc1cn2nc(-c3cc(=O)n4cc(N5CCNC6(CC6)C5)ccc4n3)cc(C)c2n1 [Example 20, 7-(4,7-diazaspiro[2.5]octan-7-yl)-2-(2,8-dimethylimidazo[1,2-b]pyridazin-6-yl)pyrido[1,2-a]pyrimidin-4-one]
[1]
  fiber size in extensor digitorum longus (EDL) muscles relative to vehicle-treated SMNΔ7 mice: dose-dependently and significantly increased
  number of motor axons relative to vehicle-treated SMNΔ7 mice: dose-dependently and significantly increased
  number of vGlut1 inputs relative to vehicle-treated SMNΔ7 mice: dose-dependently and significantly increased
[1]; longissimus muscle
  percentage of fully innervated NMJs relative to vehicle-treated SMNΔ7 mice: dose-dependently and significantly increased
[2]; Homo sapiens, HEK293-H, HEK293H cells stably transfected with SMN2-A minigene, 24 hours, 7-point concentration curve, read-out: EC1.5x minigene
  EC (1.5-fold increase): 0.0047 ± 0.0007 µM
[2]; cells expressing the SMN2 minigene
  maximum induction of SMN2 minigene full length mRNA: 20 fold
[3]
  concentration at which effects on splicing were evident: above 100 nM
  effect on SMN2 splicing: dose-dependently altered towards inclusion of exon 7
